Assays:
[1] = biological target: human TYK2 (JH2domain-pseudokinase) (Homo sapiens (Human), UniProt P29597); experiment: TYK2 JH2 Domain Binding Assay (KINOMEscan)
Method in brief: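 Competition binding of a DNA-tagged fusion of human TYK2 JH2 pseudokinase (G556–D888) with NFkB DNA-binding domain, from HEK293 extracts (<0.1 nM final), against immobilised ligand beads; 1 h shaking at room temperature, 0.9% DMSO. Bound kinase quantified by qPCR.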

Tyk2 kinase domain (DH1) = Tyk2 kinase domain (DH1) (Homo sapiens (Human), UniProt P29597); experiment: Tyk2 Radioactive Kinase Assay; format: biochemical; settings: compound at 10 μM; ATP 10 μM; read-out: Tyk2 JH1% Inhibition @ 10 μM
Sequence of Tyk2 kinase domain (DH1) (P29597 897-1176): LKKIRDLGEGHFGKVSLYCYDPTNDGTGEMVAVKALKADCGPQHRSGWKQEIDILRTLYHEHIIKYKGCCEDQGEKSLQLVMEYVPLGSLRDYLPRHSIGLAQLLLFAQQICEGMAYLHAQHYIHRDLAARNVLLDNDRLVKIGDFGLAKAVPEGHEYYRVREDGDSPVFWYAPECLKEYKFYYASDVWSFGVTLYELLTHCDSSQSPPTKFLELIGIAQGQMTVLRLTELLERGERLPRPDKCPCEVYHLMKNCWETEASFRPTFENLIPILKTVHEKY
Method in brief: (§1)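 Read-out is percent inhibition from a radioactive kinase reaction, measured with compound at 10 μM.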

JAK2 kinase domain (JH1) = JAK2 kinase domain (JH1) (Homo sapiens (Human), UniProt O60674); experiment: JAK2 Radioactive Kinase Assay; format: biochemical; settings: compound at 10 μM; ATP 10 μM; read-out: JAK2 JH1% Inhibition @ 10 μM
Sequence of JAK2 kinase domain (JH1) (O60674 849-1124): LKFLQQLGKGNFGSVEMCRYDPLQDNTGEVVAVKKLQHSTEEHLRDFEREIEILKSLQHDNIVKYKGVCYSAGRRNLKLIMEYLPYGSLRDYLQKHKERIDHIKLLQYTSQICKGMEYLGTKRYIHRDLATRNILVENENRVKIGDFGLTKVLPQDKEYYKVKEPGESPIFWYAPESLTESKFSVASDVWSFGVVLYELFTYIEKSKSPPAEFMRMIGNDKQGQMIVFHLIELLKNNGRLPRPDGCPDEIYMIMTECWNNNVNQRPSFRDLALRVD
Method in brief: as §1

Sequence of human TYK2 (JH2domain-pseudokinase) (P29597 556-888): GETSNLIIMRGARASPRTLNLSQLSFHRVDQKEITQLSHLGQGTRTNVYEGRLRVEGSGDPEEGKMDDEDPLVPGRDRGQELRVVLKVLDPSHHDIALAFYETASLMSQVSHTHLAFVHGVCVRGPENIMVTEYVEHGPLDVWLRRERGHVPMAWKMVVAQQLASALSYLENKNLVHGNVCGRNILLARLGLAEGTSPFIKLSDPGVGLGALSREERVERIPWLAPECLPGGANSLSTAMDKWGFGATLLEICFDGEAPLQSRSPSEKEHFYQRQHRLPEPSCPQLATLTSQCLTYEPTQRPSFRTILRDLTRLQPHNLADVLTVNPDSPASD

Kd [1] [nM] | inhibition at 10 µM (Tyk2 kinase domain (DH1)) [%] | inhibition at 10 µM (JAK2 kinase domain (JH1)) [%] | SMILES
0.2 to 1 | < 50 | < 50 | CNc1cc(-c2cn(C(C)C)c3ncc(Cl)cc23)nc2c(C(=O)NC3CC3)cnn12 [I-253, 5-(5-chloro-1-isopropyl-1H-pyrrolo[2,3-b]pyridin-3-yl)-N-cyclopropyl-7-(methylamino)pyrazolo[1,5-a]pyrimidine-3-carboxamide]
0.2 to 1 | < 50 | < 50 | CNc1cc(-c2cn(C(C)C)c3ncc(C)cc23)nc2c(C(=O)NC3CCC3)cnn12 [I-256]
0.2 to 1 | < 50 | < 50 | CNc1cc(-c2cn(C(C)C)c3ncc(C)cc23)nc2c(C(=O)N[C@H]3C[C@H]3F)cnn12 [I-257]
0.2 to 1 | < 50 | < 50 | [2H]C([2H])([2H])Oc1ncc(C)cc1Nc1cc(NC)n2ncc(C(=O)NC3CCC3)c2n1 [I-260, N-cyclobutyl-5-((2-(methoxy-d3)-5-methylpyridin-3-yl)amino)-7-(methylamino)pyrazolo[1,5-a]pyrimidine-3-carboxamide]
0.2 to 1 | < 50 | < 50 | CNc1cc(Nc2cccn(-c3ccc(OC)cn3)c2=O)nc2c(C(=O)NC3CC3)cnn12 [I-264]
< 0.2 | < 50 | < 50 | CNc1cc(Nc2cccn(CCOC)c2=O)nc2c(C(=O)NC3CC3)cnn12 [I-267]
< 0.2 | < 50 | < 50 | CNc1cc(Nc2cccn(CCOC)c2=O)nc2c(C(=O)N[C@H]3C[C@H]3F)cnn12 [I-268]
0.2 to 1 | < 50 | < 50 | CNc1cc(Nc2cc(C)cnc2OC)nc2c(C(=O)NCC(C)(C)CO)cnn12 [I-270]
0.2 to 1 | < 50 | < 50 | CNc1cc(Nc2cc(C)cn(-c3ccn(C)n3)c2=O)nc2c(C(=O)NC3CC3)cnn12 [I-271]
1 to 10 | < 50 | < 50 | CNc1cc(-c2cn(C(C)C)c3ncc(Cl)cc23)nc2c(C(=O)NC3CCC3)cnn12 [I-273, 5-(5-chloro-1-isopropyl-1H-pyrrolo[2,3-b]pyridin-3-yl)-N-cyclobutyl-7-(methylamino)pyrazolo[1,5-a]pyrimidine-3-carboamide]
0.2 to 1 | < 50 | < 50 | CNc1cc(Nc2cc(C)cnc2OC2CC2)nc2c(C(=O)NC3CCC3)cnn12 [I-278]
< 0.2 | < 50 | < 50 | CNc1cc(Nc2cc(C)cnc2OC2CC2)nc2c(C(=O)N[C@H]3C[C@H]3F)cnn12 [I-279]
< 0.2 | < 50 | < 50 | CNc1cc(Nc2cc(C)cnc2OCCOC)nc2c(C(=O)N[C@H]3C[C@H]3F)cnn12 [I-280]
0.2 to 1 | < 50 | < 50 | CNc1cc(Nc2cc(F)cnc2OCCOC)nc2c(C(=O)NC3CC3)cnn12 [I-286]
1 to 10 | < 50 | < 50 | CNc1cc(Nc2cc(C)c(=O)n(-c3cnn(C)c3)c2)nc2c(C(N)=O)cnn12 [I-287, 5-((5-methyl-1-(1-methyl-1H-pyrazol-4-yl)-6-oxo-1,6-dihydropyridin-3-yl)amino)-7-(methylamino)pyrazolo[1,5-a]pyrimidine-3-carboxamide]
< 0.2 | < 50 | < 50 | [2H]C([2H])([2H])Oc1ncc(F)cc1Nc1cc(NC)n2ncc(C(=O)N[C@H]3C[C@H]3F)c2n1 [I-289]
0.2 to 1 | < 50 | < 50 | CNc1cc(Nc2cccn(-c3nc(C)c(C)s3)c2=O)nc2c(C(=O)NC3CC3)cnn12 [I-291]
0.2 to 1 | < 50 | < 50 | CNc1cc(Nc2cccn(-c3nc(C)c(C)s3)c2=O)nc2c(C(=O)NC3CCC3)cnn12 [I-293]
0.2 to 1 | < 50 | < 50 | CNc1cc(Nc2cccnc2C(C)(F)F)nc2c(C(=O)NC3CC3)cnn12 [I-297]
1 to 10 | < 50 | < 50 | CNc1cc(Nc2cccnc2OC2COC2)nc2c(C(=O)NC3CCC3)cnn12 [I-298]
0.2 to 1 | < 50 | < 50 | CNc1cc(Nc2cccnc2C(C)(F)F)nc2c(C(=O)NC3CCC3)cnn12 [I-299]
0.2 to 1 | < 50 | < 50 | CNc1cc(Nc2cccnc2C(C)(F)F)nc2c(C(=O)N[C@H]3C[C@H]3F)cnn12 [I-300]

Kd [1] [nM] | inhibition at 10 µM (Tyk2 kinase domain (DH1)) [%] | inhibition at 10 µM (JAK2 kinase domain (JH1)) [%] | SMILES
0.2 to 1 | < 50 | < 50 | CNc1cc(Nc2cccn(-c3cncc(C)c3)c2=O)nc2c(C(=O)NC3CC3)cnn12 [I-301]
< 0.2 | < 50 | < 50 | CNc1cc(Nc2cccn(-c3cncc(C)c3)c2=O)nc2c(C(=O)N[C@H]3C[C@H]3F)cnn12 [I-302]
< 0.2 | < 50 | < 50 | CNc1cc(Nc2cccn([C@H]3CC[C@@H](N4CCOCC4)CC3)c2=O)nc2c(C(=O)N[C@H]3C[C@H]3F)cnn12 [I-304]
1 to 10 | < 50 | < 50 | CNc1cc(Nc2cccnc2C(C)(C)O)nc2c(C(=O)NC3CC3)cnn12 [I-306]
0.2 to 1 | < 50 | < 50 | CNc1cc(Nc2cccnc2C(C)(C)O)nc2c(C(=O)N[C@H]3C[C@H]3F)cnn12 [I-307]
< 0.2 | < 50 | < 50 | CNc1cc(Nc2cccn(-c3ccc(CCN4CCOCC4)cc3)c2=O)nc2c(C(=O)N[C@H]3C[C@H]3F)cnn12 [I-308]
< 0.2 | < 50 | < 50 | CNc1cc(Nc2cccn(C3CCCOC3)c2=O)nc2c(C(=O)NC3CC3)cnn12 (stereo not drawn) [I-313]
< 0.2 | < 50 | < 50 | CNc1cc(Nc2cc(Cl)cn(-c3ccnc(C)n3)c2=O)nc2c(C(=O)NC3CC3)cnn12 [I-316]
< 0.2 | < 50 | 50 to 70 | CNc1cc(Nc2cccnc2OC2CC2)nc2c(C(=O)N[C@H]3C[C@H](O)C3)cnn12 [I-320, 5-((2-cyclopropoxypyridin-3-yl)amino)-N-((1r, 3r)-3-hydroxycyclobutyl)-7-(methylamino)pyrazolo[1,5-a]pyrimidine-3-carboxamide]
0.2 to 1 | < 50 | < 50 | CNc1cc(Nc2cc(Cl)cn(-c3ncc(C)s3)c2=O)nc2c(C(=O)NC3CC3)cnn12 [I-322]
0.2 to 1 | < 50 | < 50 | CNc1cc(Nc2cc(Cl)cn(-c3cnn(C4CC4)c3C)c2=O)nc2c(C(=O)NC3CC3)cnn12 [I-325]
0.2 to 1 | < 50 | < 50 | CNc1cc(Nc2cccn(-c3ccnn3C)c2=O)nc2c(C(=O)NC3CC3)cnn12 [I-327]
< 0.2 | < 50 | < 50 | CNc1cc(Nc2cccn(-c3ccnn3C)c2=O)nc2c(C(=O)NC3CCC3)cnn12 [I-328]
< 0.2 | < 50 | < 50 | CNc1cc(Nc2cccn(-c3ccnn3C)c2=O)nc2c(C(=O)N[C@H]3C[C@H]3F)cnn12 [I-335]
0.2 to 1 | < 50 | < 50 | COc1ncccc1Nc1cc(NC2CC2)n2ncc(C(=O)NC3CC3)c2n1 [I-336, N-cyclopropyl-7-(cyclopropylamino)-5-((2-methoxypyridin-3-yl)amino)pyrazolo[1,5-a]pyrimidine-3-carboxamide]
0.2 to 1 | < 50 | < 50 | COc1ncccc1Nc1cc(NC2CC2)n2ncc(C(=O)N[C@@H]3C[C@@H]3F)c2n1 [I-337, 7-(cyclopropylamino)-N-((1R,2S)-2-fluorocyclopropyl)-5-((2-methoxypyridin-3-yl)amino)pyrazolo[1,5-a]pyrimidine-3-carboxamide]
< 0.2 | < 50 | < 50 | CNc1cc(Nc2cccnc2OC)nc2c(C(=O)NC3CC(F)(F)C3)cnn12 [I-338, N-(3,3-difluorocyclobutyl)-5-((2-methoxypyridin-3-yl)amino)-7-(methylamino)pyrazolo[1,5-a]pyrimidine-3-carboxamide]
0.2 to 1 | < 50 | < 50 | CNc1cc(Nc2cccnc2OC2CC2)nc2c(C(=O)NC3CC(F)(F)C3)cnn12 [I-339, 5-((2-cyclopropoxypyridin-3-yl)amino)-N-(3,3-difluorocyclobutyl)-7-(methylamino)pyrazolo[1,5-a]pyrimidine-3-carboxamide]
0.2 to 1 | < 50 | < 50 | CNc1cc(Nc2cccn(-c3cc(C)nn3C)c2=O)nc2c(C(=O)NC3CC3)cnn12 [I-340]
0.2 to 1 | < 50 | < 50 | CNc1cc(Nc2cccn(-c3cc(C)nn3C)c2=O)nc2c(C(=O)N[C@H]3C[C@H]3F)cnn12 [I-341]
0.2 to 1 | < 50 | < 50 | CNc1cc(Nc2cccn(C3CCN(C)CC3)c2=O)nc2c(C(=O)NC3CC3)cnn12 [I-348]

Source: patent US10508120B2, “TYK2 inhibitors and uses thereof” (Nimbus Lakshmi, Inc., priority 2017, dated 2019)
